What was measured:
[1] = system: normal skin fibroblasts (HFF-1); assay: Cytotoxicity MTT assay, normal skin fibroblasts; format: cell-based, human; settings: Homo sapiens, HFF-1, 72 h, 72 h incubation, mean ± SD
Procedure: (§1) The human ATCC tumor cell lines breast adenocarcinoma (MCF7), colorectal carcinoma (HT-29), pancreatic ductal adenocarcinoma (CFPAC-1), hepatocellular carcinoma (HepG2), and normal skin fibroblasts (HFF) derived from ATCC (American Type Culture Collection) were cultured in Dulbecco’s Modified Eagle Medium (DMEM) or Minimum Essential Medium (MEM) supplemented with 10% fetal bovine serum (FBS), 2 mM L-glutamine, 100 U/mL penicillin, and 100 µg/mL streptomycin (Lonza, Basel, Switzerland) in a humidified atmosphere with 5% CO2 at 37 °C. For the experiment, carcinoma cell lines and normal human cell lines were seeded in 96-well microtiter plates at a density of 3000 cells per well and 5000 cells per well, respectively, depending on the doubling time of the specific cell line. The test substances were then added at fivefold, tenfold dilutions (0.01 to 100 µM), freshly prepared in the growth medium on the day of testing, and incubated for a further 72 h. After 72 h of incubation, the growth rate of the cells was determined using the MTT assay according to the manufacturer’s guidelines. […] The IC50 values were calculated from the dose–response curves using linear regression analysis. The experiment was performed in tetraplicates in two individual experiments.
(§2) Newly synthesized compounds were evaluated for their cytotoxic activity in vitro against four human cancer cell lines, including human breast adenocarcinoma (MCF-7), ductal pancreatic adenocarcinoma (CFPAC-1), colorectal carcinoma (HT-29), and hepatocellular carcinoma (HepG2), as well as on non-cancerous skin fibroblasts (HFF-1), to check for non-specific toxicity. Furthermore, 5-Fluorouracil (5-FU) was used as a reference drug. The results are expressed as 50% inhibitory concentration (IC50) values and are listed in Table 2, Table 3, Table 4 and Table 5.

[2] = system: colorectal carcinoma (HT-29) cells; assay: Antiproliferative MTT assay, HT-29; format: cell-based, human; settings: for IC50: Homo sapiens, HT-29, 72 h, 72 h incubation, MTT, mean ± SD; for SI (HT-29): SI = [IC50 HFF]/[IC50 HT-29]
Procedure: as §1, §2

[3] = system: breast adenocarcinoma (MCF7) cells; assay: Antiproliferative MTT assay, MCF-7; format: cell-based, human; settings: for IC50: Homo sapiens, MCF7, 72 h incubation, MTT, mean ± SD
Procedure: as §1, §2

[4] = system: pancreatic ductal adenocarcinoma (CFPAC-1) cells; assay: Antiproliferative MTT assay, CFPAC-1; format: cell-based, human; settings: for IC50: Homo sapiens, CFPAC-1, 72 h, 72 h incubation, MTT, mean ± SD; for SI (CFPAC-1): SI = [IC50 HFF]/[IC50 CFPAC-1]
Procedure: as §1, §2

[5] = Metabolic stability in mouse liver microsomes; format: in vitro ADME; settings: for Clearance Class.: mouse liver microsomes
Description: Mouse liver microsomes were obtained from Corning Life Sciences (Corning, NY, USA). DMSO, nicotinamide adenine dinucleotide phosphate (NADP), glucose-6-phosphate, glucose-6-phosphate dehydrogenase, magnesium chloride, propranolol, caffeine, diclofenac, and phosphate-buffered saline (PBS) were purchased from Sigma (St. Louis, MO, USA). Acetonitrile (ACN) and methanol (MeOH) were obtained from Merck (Darmstadt, Germany). Testosterone was purchased from Steraloids (Newport, RI, USA). Metabolic stability was assessed in mouse liver microsomes. Compounds (final concentration of 1 µM, 0.03% DMSO v/v) were incubated in duplicate in phosphate buffer (50 mM, pH 7.4) at 37 °C together with mouse liver microsomes in the absence and presence of the NADPH cofactor (0.5 mM nicotinamide adenine dinucleotide phosphate, 5 mM glucose-6-phosphate, 1.5 U/mL glucose-6-phosphate dehydrogenase, and 0.5 mM magnesium chloride). Incubation and sampling were performed on a Freedom EVO 200 (Tecan, Männedorf, CH, Switzerland) at […], 10, 20, 30, 45, and 60 min. The reaction was quenched using 3 volumes of a mixture of ACN/MeOH (2:1) containing internal standard (diclofenac), centrifuged, and the supernatants were analyzed using LC-MS/MS. The metabolic activity of the microsomes was verified via simultaneous analysis of several controls including testosterone, propranolol, and caffeine. The in vitro half-life (t1/2) was calculated using GraphPad Prism (v9.0 software) non-linear regression of % of parent compound remaining versus time. In vitro clearance, expressed as µL/min/mg, was estimated from the in vitro half-life (t1/2) and normalized for the protein amount in the incubation mixture, assuming 52.5 mg of protein per gram of liver and using constant values for mouse liver weight/body weight [87.5 g/kg] and mouse liver blood flow (LBF) [131 mL/min/kg].
(§3) All samples were quantified using tandem mass spectrometry coupled to liquid chromatography. Samples were analyzed on a Sciex API4000 Triple Quadrupole Mass Spectrometer (Sciex, Division of MDS Inc., Toronto, Canada) coupled to a Shimadzu Nexera X2 UHPLC frontend (Kyoto, Japan). Samples were injected onto a UHPLC column (HALO2 C18, 2.1 × 20 mm, 2 µm or Luna Omega 1.6 µm Polar C18 100A, 30 × 2.1 mm) and eluted with a gradient at 50 °C. The mobile phase was composed of acetonitrile/water mixture (9/1, with 0.1% formic acid) and 0.1% formic acid in deionized water. The flow rate was 0.7 mL/min under gradient conditions, leading to a total run time of 1.5–2 min. A positive ion mode with turbo spray, an ion source temperature of 550 °C, and a dwell time of 150 ms were utilized for mass spectrometric detection. Quantitation was performed using multiple reaction monitoring (MRM) at the specific transitions for each compound.

[6] = system: hepatocellular carcinoma (HepG2) cells; assay: Antiproliferative MTT assay, HepG2; format: cell-based, human; settings: for IC50: Homo sapiens, HepG2, 72 h, 72 h incubation, MTT, mean ± SD; for SI (HepG2): SI = [IC50 HFF]/[IC50 HepG2]
Procedure: as §1, §2

[7] = system: MDCKII-MDR1 cells (P-glycoprotein); assay: MDCKII-MDR1 permeability assay; format: in vitro ADME, canine cells with over-expressed human MDR1 gene; settings: for Permeability: permeability class
Procedure: (§4) MDCKII-hMDR1 cells were obtained from Solvo Biotechnology, Hungary. DMEM, fetal bovine serum, Glutamax-100, Antibiotic/Antimycotic, DMSO, Dulbecco’s phosphate-buffered saline, and MEM Non-essential amino acids were purchased from Sigma (St. Louis, MO, USA). Bi-directional permeability and P-glycoprotein substrate assessments were carried out in Madin-Darby canine epithelial cells with the over-expressed human MDR1 gene (MDCKII-MDR1), coding for P-glycoprotein. Experimental procedures, as well as cell culture conditions, were the same as previously described. Briefly, compounds (10 µM, 1% DMSO v/v) in duplicate were incubated at 37 °C for 60 min with cell monolayer on 24-well Millicell inserts (Millipore, Burlington, MA, USA) with and without the P-glycoprotein inhibitor Elacridar (2 µM, International Laboratory, San Francisco, CA, USA). The inhibition of P-glycoprotein was verified by amprenavir (Moravek Biochemicals Inc, Brea, CA, USA) and monolayer integrity using Lucifer yellow (Sigma, St. Louis, MO, USA). LC-MS/MS measured compound concentrations and Lucifer yellow was measured on an Infinite F500 (Tecan, Männedorf, CH, Switzerland) using excitation of 485 nm and emission of 530 nm.
as §3

[8] = system: P-glycoprotein (human MDR1); assay: MDCKII-MDR1 permeability assay; format: in vitro ADME, canine cells with over-expressed human MDR1 gene; settings: dog, MDCK-MDR1; for Papp A→B at 60 min, 10 µM / Papp B→A at 60 min, 10 µM: 37 °C; for efflux ratio at 60 min, 10 µM: <2 no efflux, >2 active efflux; for Papp at 60 min, 10 µM: permeability class
Procedure: as §4, §3

| Structure (SMILES) | IC50 [2] | IC50 [3] | IC50 [4] | Clearance Class. [5] | Clearance Values (CL) ([5]; predicted in vivo hepatic clearance from mouse liver microsome t1/2, 1 µM compound) | IC50 [6] | Permeability [7] | Papp A→B at 60 min, 10 µM [8] | Papp B→A at 60 min, 10 µM [8] | efflux ratio at 60 min, 10 µM [8] | Efflux Ratio ([7]; <2 no efflux, >2 active efflux) | Papp at 60 min, 10 µM [8] | IC50 [1] | SI (CFPAC-1) [4] | SI (HT-29) [2] | SI (HepG2) [6] | SI (MCF-7) ([3]; SI = [IC50 HFF]/[IC50 MCF-7]) |
| --- | --- | --- | --- | --- | --- | --- | --- | --- | --- | --- | --- | --- | --- | --- | --- | --- | --- |
| OCC(c1ccc(Br)cc1)n1cc(Cn2ccc3ccccc32)nn1 (stereo not shown) [Compound 29a, 1-((1-(2-Hydroxy-1-(4-bromophenyl)ethyl)-1H-1,2,3-triazol-4-yl)methyl)-1H-indole] | 34 ± 0.3 µM | 24 ± 1 µM | 39 ± 2.8 µM | MODERATE (30–70% moderate) | 43% | 29 ± 0.8 µM | HIGH | 10 ×10⁻⁶ cm/s | 25.5 ×10⁻⁶ cm/s | 2.6 |  |  | > 100 µM | >2.6 |  |  |  |
| OCC(c1ccc(Br)cc1)n1cc(Cn2cnc3ccccc32)nn1 (stereo not shown) [Compound 34a, 1-((1-(2-Hydroxy-1-(4-bromophenyl)ethyl)-1H-1,2,3-triazol-4-yl)methyl)-1H-benzimidazole] | 39 ± 4.3 µM | 22 ± 5.1 µM | 15 ± 8.9 µM | LOW (<30% low) |  | 35 ± 14.2 µM |  | ≤ 2 ×10⁻⁶ cm/s | 65.7 ×10⁻⁶ cm/s | 32.8 |  | ≤ 2 ×10⁻⁶ cm/s | 42 ± 8.3 µM | 2.8 |  |  |  |
| OC(Cn1cc(Cn2cnc3c(Cl)ncnc32)nn1)c1ccc(F)cc1 (stereo not shown) [Compound 37b, 6-Chloro-9-((1-(2-hydroxy-2-(4-fluorophenyl)ethyl)-1H-1,2,3-triazol-4-yl)methyl)-9H-purine] | 46 ± 9.9 µM | 49 ± 9.9 µM | 56 ± 5.5 µM |  |  | 54 ± 6 µM |  |  |  |  |  |  | 59 ± 9.2 µM |  | 1.3 | 1.1 |  |
| OCC(c1ccc(Cl)cc1)n1cc(Cn2cnc3ccccc32)nn1 (stereo not shown) [Compound 33a, 1-((1-(2-Hydroxy-1-(4-chlorophenyl)ethyl)-1H-1,2,3-triazol-4-yl)methyl)-1H-benzimidazole] | 63 ± 9.8 µM | 40 ± 1.8 µM | 34 ± 2.3 µM |  |  | 50 ± 12.8 µM |  |  |  |  |  |  | > 100 µM | >2.9 |  |  |  |
| OC(Cn1cc(Cn2cnc3ccccc32)nn1)c1ccc(F)cc1 (stereo not shown) [Compound 32b, 1-((1-(2-Hydroxy-2-(4-fluorphenyl)ethyl)-1H-1,2,3-triazol-4-yl)methyl)-1H-benzimidazole] | > 100 µM | > 100 µM | > 100 µM |  |  | > 100 µM |  |  |  |  |  |  | > 100 µM |  |  |  |  |

More lines, main results first:

| IC50 [2] | IC50 [3] | IC50 [4] | Clearance Class. [5] | Clearance Values (CL) ([5]; predicted in vivo hepatic clearance from mouse liver microsome t1/2, 1 µM compound) | IC50 [6] | Permeability [7] | Papp A→B at 60 min, 10 µM [8] | Papp B→A at 60 min, 10 µM [8] | efflux ratio at 60 min, 10 µM [8] | Efflux Ratio ([7]; <2 no efflux, >2 active efflux) | Papp at 60 min, 10 µM [8] | Structure (SMILES) | IC50 [1] | SI (CFPAC-1) [4] | SI (HT-29) [2] | SI (HepG2) [6] | SI (MCF-7) ([3]; SI = [IC50 HFF]/[IC50 MCF-7]) |
| --- | --- | --- | --- | --- | --- | --- | --- | --- | --- | --- | --- | --- | --- | --- | --- | --- | --- |
| 14 ± 8.1 µM | 28 ± 6.7 µM | 25 ± 6.4 µM | low clearance |  | 15 ± 9 µM |  |  |  |  | higher efflux values |  | OC(Cn1cc(Cn2cnc3c(Cl)ncnc32)nn1)c1ccc(C(F)(F)F)cc1 (stereo not shown) [Compound 40b, 6-Chloro-9-((1-(2-hydroxy-2-(4-(trifluoromethyl)phenyl)ethyl)-1H-1,2,3-triazol-4-yl)methyl)-9H-purine] | 8 ± 4.8 µM |  | 0.6 | 0.5 |  |
| 31 ± 2.6 µM | 14 ± 4.8 µM | 46 ± 3.8 µM |  |  | 16 ± 5.6 µM |  |  | 58 ×10⁻⁶ cm/s | 68.1 |  | ≤ 2 ×10⁻⁶ cm/s | OCC(c1ccc(Br)cc1)n1cc(Cn2cnc3c(Cl)ncnc32)nn1 (stereo not shown) [Compound 39a, 6-Chloro-9-((1-(2-hydroxy-1-(4-bromophenyl)ethyl)-1H-1,2,3-triazol-4-yl)methyl)-9H-purine] | 14 ± 4.7 µM |  | 0.5 | 0.9 |  |
| 33 ± 6.1 µM | 24 ± 8.8 µM |  |  |  | 33 ± 4.2 µM |  |  |  |  |  |  | OCC(c1ccc(Cl)cc1)n1cc(Cn2ccc3c(Cl)ncnc32)nn1 (stereo not shown) [Compound 43a, 4-Chloro-7-((1-(2-hydroxy-1-(4-chlorophenyl)ethyl)-1H-1,2,3-triazol-4-yl)methyl)-7H-pyrrolo[2,3-d]pyrimidine] | 41 ± 16.3 µM | 5.1 |  |  | 1.7 |
| 50 ± 0.6 µM | 21 ± 14 µM | 15 ± 1 µM |  |  | 44 ± 8.1 µM | MODERATE | 3.1 ×10⁻⁶ cm/s | 69.6 ×10⁻⁶ cm/s | 22.5 |  |  | OC(Cn1cc(Cn2cnc3c(Cl)ncnc32)nn1)c1ccc(Br)cc1 (stereo not shown) [Compound 39b, 6-Chloro-9-((1-(2-hydroxy-2-(4-bromophenyl)ethyl)-1H-1,2,3-triazol-4-yl)methyl)-9H-purine] | 30 ± 2.7 µM |  | 0.6 | 0.7 |  |
| 77 ± 1.1 µM | 77 ± 3 µM | 77 ± 0.5 µM | LOW (<30% low) |  | 66 ± 22.8 µM |  | ≤ 2 ×10⁻⁶ cm/s | 41.1 ×10⁻⁶ cm/s | 41.4 |  | ≤ 2 ×10⁻⁶ cm/s | OCC(c1ccc(Br)cc1)n1cc(Cn2cnc3c(Cl)nccc32)nn1 (stereo not shown) [Compound 49a, 4-Chloro-1-((1-(2-hydroxy-1-(4-bromophenyl)ethyl)-1H-1,2,3-triazol-4-yl)methyl)-1H-imidazo[4,5-c]pyridine] | 90 ± 4.04 µM |  |  | 1.4 |  |
